Reference: article PMC12501849, “Design, synthesis and evaluation of arylpurine-based sinefungin mimetics as zika virus methyltransferase inhibitors” (RSC Advances, 2025)
“Also recorded” adds a separate entry of the source.

Tests used:
DENV3 MTase = target: T1, DENV3 MTase (Dengue virus type 3, UniProt P27915); test: Filter binding assay (FBA), DENV3 2′-O-MTase activity; format: biochemical; details: for inhibition at 50 µM: 2′-O-MTase activity, compound at 50 μM, read-out: Percentage of inhibition of DENV3 MTase; for Effect on 2′-O-MTase activity of DENV3 (in words): tested at 50 μM
T1 construct: the MTase activity is located at the N-terminal of the viral NS5 protein; made in house
T1 sequence (P27915 2492-2753): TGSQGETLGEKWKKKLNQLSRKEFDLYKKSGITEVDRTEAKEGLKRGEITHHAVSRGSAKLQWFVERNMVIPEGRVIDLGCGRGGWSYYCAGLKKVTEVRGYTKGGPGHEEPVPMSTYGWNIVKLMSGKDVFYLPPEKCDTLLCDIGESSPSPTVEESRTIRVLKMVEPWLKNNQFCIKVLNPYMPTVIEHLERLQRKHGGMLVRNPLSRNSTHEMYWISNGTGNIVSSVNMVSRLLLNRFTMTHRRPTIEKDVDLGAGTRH
Method: (§1) The synthesized arylpurines were evaluated for their inhibitory activity against the 2′-O-MTase activity of ZIKV and DENV3 MTases by quantification of [^3H]-methyl transfer from the [^3H]-SAM on short synthetic capped RNA (GpppAC4), by using a filter binding assay (FBA).[13,33] The universal methyltransferase inhibitor sinefungin was included as a positive control (Table 1), whose IC50 value against ZIKV MTase has already been reported using a similar assay.[13] We assessed MTase inhibition by testing the synthesized compounds at a concentration of 50 μM.
(§2) Proteins were produced and purified as previously described.[13] Briefly, the coding sequence of ZIKV NS5 (aa 4-903) and the ZIKV NS5 MTase (aa 4-278) domain were synthesized (Genscript) based on the sequence of the ZIKV strain H/PF/2013 (GenBank accession no. KJ776791.2) and then cloned into a pQE30 (Qiagen) plasmid with an N-terminal His6 tag. The MTase domains (aa 4-278 and aa 1-264) were produced in Escherichia coli T7 Express Iq (New England BioLabs). Cells were grown in Terrific Broth at 37 °C until the optical density at 600 nm (OD600) reached 0.6. Protein expression was then induced by 0.5 mM IPTG (isopropyl-β-D-thiogalactopyranoside) at 17 °C overnight. Bacteria were harvested by centrifugation. The bacterial pellets from a 2-liter bacterial culture were resuspended in 100 ml lysis buffer (50 mM Tris–HCl [pH 8], 300 mM NaCl, 5% glycerol, 0.1% Triton, 10 μg per ml DNase I, 2 tablets of EDTA-free antiprotease cocktail [Roche], 0.25 mg per ml lysozyme). After 30 min of incubation at 4 °C, cells were sonicated and clarified by centrifugation prior to immobilized metal affinity chromatography (IMAC) purification on a 5-mL His prep column (GE Healthcare), with elution in 50 mM Tris–HCl, 300 mM NaCl, and 250 mM imidazole (pH 8.0). The eluted protein was then loaded on a 16/60 Superdex 200 (GE Healthcare) equilibrated in a mixture of 10 mM HEPES, 500 mM NaCl, glycerol 5%, and 1 mM dithiothreitol (DTT [pH 7.5]).
(§3) The FBA MTase assay was carried out in a reaction mixture [40 mM Tris–HCl (pH 8.0), 1 mM DTT, 1.9 μM SAM, and 0.1 μM ^3H-SAM (PerkinElmer)] in the presence of 0.7 μM GpppAC4 synthetic RNA and the MTase (500 nM), according to the method previously described.[39] Briefly, the MTase was first mixed with the compound suspended in DMSO (5% final DMSO) before the addition of RNA substrate and SAM and then incubated at 30 °C. Reactions mixtures were stopped after 30 min by their 10-fold dilution in ice-cold water. Samples were transferred to diethylaminoethyl (DEAE) filtermat (PerkinElmer) using a Filtermat Harvester (Packard Instruments). The RNA-retaining mats were washed twice with 10 mM ammonium formate pH 8.0, twice with water and once with ethanol. They were soaked with scintillation fluid (PerkinElmer), and ^3H-methyl transfer to the RNA substrates was determined using a Wallac MicroBeta TriLux liquid scintillation counter (PerkinElmer).

[1] = Cytotoxicity in non-infected SH-SY5Y cells; format: cell-based; details: human, SH-SY5Y neuroblastoma cells, 50% cytotoxic concentration
Method: (§4) Assessment of the antiviral activity against ZIKV in VeroE6 cells (African green monkey kidney cells; Vero 76, clone E6; ATCC: Cat# CRL-1586) was done as previously described.[35] The antiviral assays in the neuroblastoma SH-SY5Y cells (CRL-2266; ATCC) were conducted as follows: SH-SY5Y cells were seeded in assay medium (MEM supplemented with 2% fetal bovine serum, 2 mM L-glutamine and 0.075% sodium bicarbonate; all from Thermo Fisher Scientific) at a density of 15 000 cells/well in 96-well plates. Cells were incubated overnight at 37 °C and 5% CO2. The next day, a serial dilution of the compounds was added to the cells, followed by inoculation of the cells with ZIKV MR766 (MOI = 0.01). Following a 7-day incubation at 37 °C and 5% CO2, ZIKV-induced cytopathic effect was determined by means of the MTS readout method, analogous to the assay with the VeroE6 cells.[35] The 50% effective concentration (the compound concentration that is required to inhibit virus-induced CPE by 50%; EC50) and the 50% cytotoxic concentration (i.e. the compound concentration that is required to inhibit the cell growth by 50%; CC50) was determined using logarithmic interpolation.

ZIKV = test: Antiviral assay against ZIKV in VeroE6 cells (CPE, MTS readout); format: cell-based, zika virus; details: for EC50: Zika virus, Vero C1008, VeroE6 cells, concentration that protects 50% of the cells from virus-induced cytopathic effect; for Antiviral activity against ZIKV (in words): cell-based assay
Method: (§5) These compounds were next evaluated for their antiviral effect on ZIKV replication in Vero E6 and SH-SY5Y cells. 7-Deaza-2′-C-methyladenosine (7DMA), a viral polymerase inhibitor,[35] was included as a positive control.
as §4

ZIKV MTase = target: T2, ZIKV MTase (Zika virus, UniProt A0A024B7W1); test: Filter binding assay (FBA), ZIKV 2′-O-MTase activity; format: biochemical; details: for inhibition at 50 µM: 2′-O-MTase activity, compound at 50 μM, read-out: Percentage of inhibition of ZIKV MTase; for Effect on 2′-O-MTase activity of ZIKV (in words): tested at 50 μM
T2 construct: the ZIKV NS5 MTase (aa 4-278) domain were synthesized (Genscript); His6 (N); made in house; host or cells: Escherichia coli T7 Express Iq
T2 sequence (A0A024B7W1 2524-2798): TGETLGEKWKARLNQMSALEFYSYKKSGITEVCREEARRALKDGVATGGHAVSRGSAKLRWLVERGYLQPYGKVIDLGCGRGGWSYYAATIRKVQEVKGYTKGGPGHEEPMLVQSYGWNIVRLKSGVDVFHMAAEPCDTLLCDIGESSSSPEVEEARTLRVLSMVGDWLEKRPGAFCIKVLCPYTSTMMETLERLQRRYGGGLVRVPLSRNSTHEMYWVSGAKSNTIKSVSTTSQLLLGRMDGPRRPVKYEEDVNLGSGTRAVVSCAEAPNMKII
Method: as §1, §2, §3

[2] = Cytotoxicity in non-infected VeroE6 cells; format: cell-based, African green monkey; details: African green monkey, non-infected, 50% cytotoxic concentration
Method: as §4

ZIKV MR766 = test: Antiviral assay against ZIKV in SH-SY5Y cells (CPE, MTS readout); format: cell-based, zika virus; details: Zika virus, 168 h; SH-SY5Y cells; ZIKV MR766, MOI 0.01, 7-day incubation
Method: as §5
Besides the standard assays in VeroE6 cells, the compounds were also tested in SH-SY5Y cells. […] Thus, they function as a relevant neuronal cell-based model of ZIKV infection.[38]
as §4

[3] = Stability towards spontaneous cyclization in PBS : DMSO followed by HPLC; format: physicochemical; details: PBS : DMSO (95 : 5), HPLC over a 24-hour period
Method: Then, compound 28 was treated with TFA at 70 °C to remove the tert-butyl ester and the p-methoxybenzyl group. Analysis of the reaction by HPLC/MS after 1 h indicated a mixture of two compounds with m/z = 695 and m/z = 575, that might correspond to cyclized products with and without the p-methoxybenzyl group at position 6 (see Fig. S3 at the SI). […] In exploring alternative methods for removing the PMB group, we came across a report by Sako et al., which described the oxidative debenzylation of 6-N-benzyladenosines under neutral pH conditions.[32] Since our compounds are more lipophilic than the nucleosides described by […], we changed the PBS : CH3CN ratio from 2 : 1, as described, to 1 : 1 to favor the solubility of our compounds. Additionally, we used microwave irradiation to shorten the reaction times. Thus, treatment of 27 with […] in PBS : CH3CN (1 : 1) at 80 °C for 45 min under MW irradiation led to the removal of the p-methoxybenzyl group, as detected by HPLC/MS. Further treatment of the reaction product with piperidine afforded 29 (25% yield over the 2 steps). A similar reaction sequence applied to 28 led to compound 30 (21% yield). […] Finally, treatment of 29 and 30 with TFA in DCM at rt afforded compounds 31 and 32 in 73% and 62% yields, respectively. To rule out the possibility of spontaneous cyclization following removal of both protecting groups from the amino acid, compounds 21, 31 and 32 were dissolved in a PBS : DMSO (95 : 5) mixture.

SMILES | inhibition at 50 µM (DENV3 MTase) [%] | Effect on 2′-O-MTase activity of DENV3 (in words) (DENV3 MTase) | CC50 at 7 days [1] [µM] | EC50 (ZIKV) [µM] | inhibition at 50 µM (ZIKV MTase) [%] | Effect on 2′-O-MTase activity of ZIKV (in words) (ZIKV MTase) | CC50 [2] [µM] | EC50 (ZIKV MR766) [µM] | Antiviral activity against ZIKV (in words) (ZIKV) | Stability (no spontaneous cyclization) [3]
CC(C)(C)CCN(CC[C@H](N)C(=O)O)c1cccc(-n2cnc3c(N)ncnc32)c1 [Compound 10, (S)-2-Amino-4-((3-(6-amino-9H-purin-9-yl)phenyl)(3,3-dimethylbutyl)amino)butanoic acid] | 0 | no effect | > 100 | > 100 | 0 | no effect | > 100 | > 100 | – | –
CC(C)(C)OC(=O)[C@@H](N)CC(=O)Nc1cccc(-n2cnc3c(N)ncnc32)c1 [Compound 29, tert-Butyl N^4-(3-(6-amino-9H-purin-9-yl)phenyl)-L-asparaginate] | ~20 | some inhibition | > 100 | > 100 | ~20 | inhibited; also recorded: some inhibition | > 100 | > 100 | no antiviral activity | –
COc1ccc(NC(=O)C[C@H](N)C(=O)OC(C)(C)C)cc1-n1cnc2c(N)ncnc21 [Compound 30, tert-Butyl N^4-(3-(6-amino-9H-purin-9-yl)-4-methoxyphenyl)-L-asparaginate] | 0 | no effect | > 100 | > 100 | 0 | no effect | > 100 | > 100 | – | –
C[C@@]1(O)[C@H](O)[C@@H](CO)O[C@H]1n1ccc2c(N)ncnc21 [Compound 7DMA, 7-Deaza-2′-C-methyladenosine, reference compound] | – | – | > 50 | 9 ± 0.2 | – | – | > 200 | 33.7 ± 5.1 | – | –
Cc1ncnc2c1ccn2-c1cccc(NC(=O)C[C@H](N)C(=O)O)c1 [Compound 21, N ^4-(3-(4-Methyl-7H-pyrrolo[2,3-d]pyrimidin-7-yl)phenyl)-L-asparagine] | 0 | no effect | > 100 | > 100 | 0 | no effect | > 100 | > 100 | – | remained intact
Nc1ncnc2c1ncn2-c1cccc(NC(=O)C[C@H](N)C(=O)O)c1 [Compound 31, N ^4-(3-(6-Amino-9H-purin-9-yl)phenyl)-L-asparagine] | ~20 | some inhibition | > 100 | > 100 | ~20 | inhibited; also recorded: some inhibition | > 100 | > 100 | no antiviral activity | remained intact
Cc1ncnc2c1ccn2-c1cccc(N(CC[C@H](N)C(=O)O)CCC(C)(C)C)c1 [Compound 14, (S)-2-Amino-4-((3,3-dimethylbutyl)(3-(4-methyl-7H-pyrrolo[2,3-d]pyrimidin-7-yl)phenyl)amino)butanoic acid] | 0 | no effect | > 100 | > 100 | 0 | no effect | > 100 | > 100 | – | –
Cc1ncnc2c1ccn2-c1cccc(NC(=O)C[C@H](N)C(=O)OC(C)(C)C)c1 [Compound 20, tert-Butyl N^4-(3-(4-methyl-7H-pyrrolo[2,3-d]pyrimidin-7-yl)phenyl)-L-asparaginate] | 0 | no effect | > 100 | > 100 | 0 | no effect | > 33 | > 100 | – | –
COc1ccc(NC(=O)C[C@H](N)C(=O)O)cc1-n1cnc2c(N)ncnc21 [Compound 32, N ^4-(3-(6-Amino-9H-purin-9-yl)-4-methoxyphenyl)-L-asparagine] | 0 | no effect | > 100 | > 100 | 0 | no effect | > 100 | > 100 | – | remained intact
Cc1ncnc2c1ccn2-c1cccc(N(CC[C@H](NC(=O)OC(C)(C)C)C(N)=O)CCC(C)(C)C)c1 [Compound 17, tert-Butyl (S)-(1-amino-4-((3,3-dimethylbutyl)(3-(4-methyl-7H-pyrrolo[2,3-d]pyrimidin-7-yl)phenyl)amino)-1-oxobutan-2-yl)carbamate] | 7.2 | modest inhibition | 7 | > 100 | 11.1 | modest inhibition | 22.8 ± 0.5 | > 100 | – | –
